According to patent US6537576B1, “Biologically active composition” (Bioglan AB, priority 1998, dated 2003):

Test: Solubility of piroxicam in PEG400 (HPLC)
Type: physicochemical
Details: piroxicam in PEG400, excess stirred 2 weeks at room temperature, HPLC analysis

solubility: 1.6%
Compound: CN1C(C(=O)Nc2ccccn2)=C(O)c2ccccc2S1(=O)=O [piroxicam]
